Test system: 485176-168-R4-J1-PDC spheroids with HUVEC/MSC, viability
Assay: Anticancer human tumor 485176-168-R4-J1-PDC patient-derived pancreatic adenocarcinoma cell line growth inhibition [GQUAD]
Details: for IC50: curve of first compound; for viability, T/C: stronger effect = lower value
Method in brief: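 Viability of tumor cells grown as complex spheroids with endothelial and stromal cells, exposed to drug combinations. Top concentration at or near clinical Cmax (else 10 microM), diluted in half-log increments.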

[1] = second compound 0.0316 µM, first compound 0.0316 µM
[2] = second compound 0.0316 µM, first compound 0.1 µM
[3] = second compound 0.0316 µM, first compound 0.316 µM
[4] = second compound 0.0316 µM, first compound 1 µM
[5] = second compound 0.0316 µM, first compound 3.16 µM
[6] = second compound 0.0316 µM, first compound 10 µM
[7] = second compound 0.1 µM, first compound 0.0316 µM
[8] = second compound 0.1 µM, first compound 0.1 µM
[9] = second compound 0.1 µM, first compound 0.316 µM
[10] = second compound 0.1 µM, first compound 1 µM
[11] = second compound 0.1 µM, first compound 3.16 µM
[12] = second compound 0.1 µM, first compound 10 µM
[13] = second compound 0.316 µM, first compound 0.0316 µM
[14] = second compound 0.316 µM, first compound 0.1 µM
[15] = second compound 0.316 µM, first compound 0.316 µM
[16] = second compound 0.316 µM, first compound 1 µM
[17] = second compound 0.316 µM, first compound 3.16 µM
[18] = second compound 0.316 µM, first compound 10 µM
[19] = second compound 1 µM, first compound 0.0316 µM
[20] = second compound 1 µM, first compound 0.1 µM
[21] = second compound 1 µM, first compound 0.316 µM
[22] = second compound 1 µM, first compound 1 µM
[23] = second compound 1 µM, first compound 3.16 µM
[24] = second compound 1 µM, first compound 10 µM
[25] = second compound 3.16 µM, first compound 0.0316 µM
[26] = second compound 3.16 µM, first compound 0.1 µM
[27] = second compound 3.16 µM, first compound 0.316 µM
[28] = second compound 3.16 µM, first compound 1 µM
[29] = second compound 3.16 µM, first compound 3.16 µM
[30] = second compound 3.16 µM, first compound 10 µM
[31] = second compound 10 µM, first compound 0.0316 µM
[32] = second compound 10 µM, first compound 0.1 µM
[33] = second compound 10 µM, first compound 0.316 µM
[34] = second compound 10 µM, first compound 1 µM
[35] = second compound 10 µM, first compound 3.16 µM
[36] = second compound 10 µM, first compound 10 µM
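Further: spheroids exposed to compounds for seven days before readout.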
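Wherever viability, T/C is given: percent viability relative to DMSO vehicle control wells as 100%.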

`CCCS(=O)(=O)Nc1ccc(F)c(C(=O)c2c[nH]c3ncc(-c4ccc(Cl)cc4)cc23)c1F` + Cc1cnc(CNC(=O)c2c(=O)c3ccc(N4CCCN(C)CC4)nc3n3c2sc2ccccc23)cn1 gave an IC50 (second compound 0.0316 µM) of over 10 µM, an IC50 (second compound 0.1 µM) of over 10 µM and an IC50 (second compound 0.316 µM) of over 10 µM. The IC50 (second compound 1 µM) was under 0.0316 µM, the IC50 (second compound 3.16 µM) was under 0.0316 µM and the IC50 (second compound 10 µM) was under 0.0316 µM. It also gave a viability, T/C [1] of 95.8%, a viability, T/C [2] of 77.4% and a viability, T/C [3] of 82.9%. The viability, T/C [4] was 81.8%, the viability, T/C [5] was 92.8% and the viability, T/C [6] was 66%. The viability, T/C [7] was 63.8%, the viability, T/C [8] was 68.2% and the viability, T/C [9] was 60.2%. It also gave a viability, T/C [10] of 80.3%, a viability, T/C [11] of 76.3% and a viability, T/C [12] of 49.7%. The viability, T/C [13] was 55.9%, the viability, T/C [14] was 55.3% and the viability, T/C [15] was 51.2%. It also gave a viability, T/C [16] of 56.4%, a viability, T/C [17] of 57.8% and a viability, T/C [18] of 49.9%. The viability, T/C [19] was 45.4%, the viability, T/C [20] was 56.1% and the viability, T/C [21] was 47%. It also gave a viability, T/C [22] of 41.4%, a viability, T/C [23] of 48.9% and a viability, T/C [24] of 35.4%. For the same compound, the viability, T/C [25] was 45.1%, the viability, T/C [26] was 43.5% and the viability, T/C [27] was 43.6%. It also gave a viability, T/C [28] of 44.3%, a viability, T/C [29] of 43.9% and a viability, T/C [30] of 40.9%. For the same compound, the viability, T/C [31] was 39.1%, the viability, T/C [32] was 36.3% and the viability, T/C [33] was 30.1%. It also gave a viability, T/C [34] of 37.2%, a viability, T/C [35] of 39.6% and a viability, T/C [36] of 35.4%.
`COc1ncnc(C2CC2)c1-c1ncc2cnn(Cc3ccc(-c4nc(C(F)(F)F)cn4C(C)C)cc3)c2n1` + Cc1cnc(CNC(=O)c2c(=O)c3ccc(N4CCCN(C)CC4)nc3n3c2sc2ccccc23)cn1 was tested, and the IC50 (second compound 0.0316 µM) was over 10 µM, the IC50 (second compound 0.1 µM) was over 10 µM and the IC50 (second compound 0.316 µM) was over 10 µM. It also gave an IC50 (second compound 1 µM) of under 0.0316 µM, an IC50 (second compound 3.16 µM) of under 0.0316 µM and an IC50 (second compound 10 µM) of under 0.0316 µM. The viability, T/C [1] was 102%, the viability, T/C [2] was 83.6% and the viability, T/C [3] was 88.9%. It also gave a viability, T/C [4] of 89.7%, a viability, T/C [5] of 107% and a viability, T/C [6] of 83.7%. It also gave a viability, T/C [7] of 77.3%, a viability, T/C [8] of 86.8% and a viability, T/C [9] of 76.8%. For the same compound, the viability, T/C [10] was 66.2%, the viability, T/C [11] was 67% and the viability, T/C [12] was 81%. It also gave a viability, T/C [13] of 54.6%, a viability, T/C [14] of 65.4% and a viability, T/C [15] of 56.4%. For the same compound, the viability, T/C [16] was 73.7%, the viability, T/C [17] was 61.6% and the viability, T/C [18] was 62.9%. For the same compound, the viability, T/C [19] was 50.4%, the viability, T/C [20] was 44.1% and the viability, T/C [21] was 57.7%. For the same compound, the viability, T/C [22] was 52.5%, the viability, T/C [23] was 58.3% and the viability, T/C [24] was 54.9%. It also gave a viability, T/C [25] of 45.1%, a viability, T/C [26] of 47.6% and a viability, T/C [27] of 47%. For the same compound, the viability, T/C [28] was 40.4%, the viability, T/C [29] was 43.8% and the viability, T/C [30] was 47%. It also gave a viability, T/C [31] of 36.1%, a viability, T/C [32] of 47.7% and a viability, T/C [33] of 40.3%. For the same compound, the viability, T/C [34] was 34.4%, the viability, T/C [35] was 40.5% and the viability, T/C [36] was 39.6%.
`O=C(NO)c1cnc(N2CCN(S(=O)(=O)c3ccc4ccccc4c3)CC2)nc1` + Cc1cnc(CNC(=O)c2c(=O)c3ccc(N4CCCN(C)CC4)nc3n3c2sc2ccccc23)cn1 was tested, and the IC50 (second compound 0.0316 µM) was 0.322 µM, the IC50 (second compound 0.1 µM) was 0.185 µM and the IC50 (second compound 0.316 µM) was 0.132 µM. The IC50 (second compound 1 µM) was under 0.0316 µM, the IC50 (second compound 3.16 µM) was under 0.0316 µM and the IC50 (second compound 10 µM) was under 0.0316 µM. For the same compound, the viability, T/C [1] was 81%, the viability, T/C [2] was 62.6% and the viability, T/C [3] was 53.3%. For the same compound, the viability, T/C [4] was 8.83%, the viability, T/C [5] was 0.53% and the viability, T/C [6] was 0.27%. It also gave a viability, T/C [7] of 66.3%, a viability, T/C [8] of 57.2% and a viability, T/C [9] of 42%. For the same compound, the viability, T/C [10] was 8.37%, the viability, T/C [11] was 0.28% and the viability, T/C [12] was 1.03%. The viability, T/C [13] was 59.1%, the viability, T/C [14] was 51.5% and the viability, T/C [15] was 35.7%. For the same compound, the viability, T/C [16] was 2.63%, the viability, T/C [17] was 0.22% and the viability, T/C [18] was 0.44%. The viability, T/C [19] was 39.8%, the viability, T/C [20] was 44.7% and the viability, T/C [21] was 23.2%. It also gave a viability, T/C [22] of 0.9%, a viability, T/C [23] of 1.33% and a viability, T/C [24] of 0.81%. It also gave a viability, T/C [25] of 45.5%, a viability, T/C [26] of 41.9% and a viability, T/C [27] of 18.6%. For the same compound, the viability, T/C [28] was 0.3%, the viability, T/C [29] was 0.21% and the viability, T/C [30] was 0.18%. For the same compound, the viability, T/C [31] was 36.3%, the viability, T/C [32] was 33.3% and the viability, T/C [33] was 14.1%. The viability, T/C [34] was 0.24%, the viability, T/C [35] was 1.65% and the viability, T/C [36] was 0.46%.

From PubChem BioAssay AID2060509 (Molecular Pharmacology Branch, DTP, NCI, 2025)
